Test results: US20030003508A1 (priority 1999, published 2003)

Test system: R. pulicis
Assay type: cell-based, Rickettsia pulicis

For CC[C@H]1OC(=O)[C@H](C)[C@@H](O[C@H]2C[C@@](C)(OC)[C@@H](O)[C@H](C)O2)[C@H](C)[C@@H](O[C@@H]2O[C@H](C)C[C@H](N(C)C)[C@H]2O)[C@](C)(O)C[C@@H](C)C(=O)[C@H](C)[C@@H](O)[C@]1(C)O [Erythromycin], the “resistance/sensitivity of the isolate to the antibiotic” value was “resistant”.
